Broadly, the EC50 is the concentration giving half of the maximal effect. A lower EC50 goes with an effect from little substance. Broadly, the IC50 is the concentration that inhibits the measured activity by half. Read a high IC50 as lower potency.

SMILES strings stand for the structures.

The first assay has as its system HCV replicon. The assay can be described thus: HCV replicon assay (FRET or luciferase reporter). It counts as cell-based. To be noted: Hepatitis C virus, one of the methods described, class symbol. An excerpt: To perform the HCV FRET screening assay, 96-well cell culture plates were used, The FRET peptide (Anaspec, Inc.) (Taliani et al., Anal. Biochem., 240:60-67 (1996)) contains a fluorescence donor, EDANS, near one end of the peptide and an acceptor, DABCYL, near the other end. The fluorescence of the peptide is quenched by […] resonance energy transfer (RET) between the donor and the acceptor, but as the NS3 protease cleaves the peptide the products are released from RET quenching and the fluorescence of the donor becomes apparent. The assay reagent was made as follows: 5× cell Luciferase cell culture lysis reagent from Promega (#E153A) diluted to 1× with dH2O, NaCl added to 150 mM final, the FRET peptide diluted to 20 μM final from a 2 mM stock.
To prepare plates, HCV replicon cells, with or without a Renilla luciferase reporter gene, were trypsinized and placed into each well of a 96-well plate with titrated test compounds added in columns 3 through 12; columns 1 and 2 contained a control compound (HCV protease inhibitor), and the bottom row contained cells without compound. The plates were then placed in a CO2 incubator at 37° C.
Subsequent to addition of the test compounds described above (FRET Assay Preparation), at various times the plate was removed and Alamar blue solution (Trek Diagnostics, #00-100) was added per well as a measure of cellular toxicity. After reading in a CYTOFLUOR® 4000 instrument (PE Biosystems), plates were rinsed with PBS and then used for FRET assay by the addition of 30 ul of the FRET peptide assay reagent described above (FRET Assay Preparation) per well. The plate was then placed into the CYTOFLUOR® 4000 instrument which had been set to 340 excite/490 emission, automatic mode for 20 cycles and the plate read in a kinetic mode. Typically, the signal to noise using an endpoint analysis after the reads was at least three-fold. Alternatively, after Alamar blue reading, plates were rinsed with PBS, 50 ul of DMEM (high glucose) without phenol red was added and plates were then used for luciferase assay using the Promega DUAL-GLO® Luciferase Assay System.
Compound analysis was determined by quantification of the relative HCV replicon inhibition and the relative cytotoxicity values. To calculate cytoxicity values, the average Alamar Blue fluorescence signals from the control wells were set as 100% non-toxic. The individual signals in each of the compound test wells were then divided by the average control signal and multiplied by 100% to determine […]. To calculate the HCV replicon inhibition values, an average background value was obtained from the two wells containing the highest amount of HCV protease inhibitor at the end of the assay period. These numbers were similar to those obtained from naïve Huh-7 cells.
The background numbers were then subtracted from the average signal obtained from the control wells and this number was used as 100% activity. The individual signals in each of the compound test wells were then divided by the averaged control values after background subtraction and multiplied by 100% to determine percent activity. EC50 values for a protease inhibitor titration were calculated as the concentration which caused a 50% reduction in FRET or luciferase activity. The two numbers generated for the compound plate, percent cytoxicity and percent activity were used to determine compounds of interest for further analysis.
The HCV replicon luciferase assay was developed to monitor the inhibitory effects of compounds described in the disclosure on HCV viral replication. Utilization of a replicon luciferase reporter assay was first described by Krieger et al (Krieger, N. et al., J. Virology, 75(10):4614-4624 (2001)). HUH-7 cells, constitutively expressing the HCV replicon, were grown in Dulbecco's Modified Eagle Media (DMEM) (Gibco-BRL) containing 10% Fetal calf serum (FCS) (Sigma) and 1 mg/ml G418 (Gibco-BRL). […]
On to `COc1ccc2c(c1)C=C(c1c(C(=O)N3C[C@@H](C)O[C@@H](C)C3)ncn1C1CC1)Cn1c-2c(C2CCCCC2)c2ccc(C(=O)NS(=O)(=O)C(C)C)cc21`, for which the EC50 lay within 1.7 to 500 nM.
`COc1ccc2c(c1)C=C(c1c(C(=O)N3CCOCC3)ncn1C1CC1)Cn1c-2c(C2CCCCC2)c2ccc(C(=O)NS(=O)(=O)C(C)C)cc21`: the EC50 lay within 1.7 to 500 nM.
On the same count and under the same terms, for `COc1ccc2c(c1)C=C(c1c(C(=O)N3C4CCCC3COC4)cnn1C1CCC1)Cn1c-2c(C2CCCCC2)c2ccc(C(=O)NS(=O)(=O)C(C)C)cc21` the value was 1.7 to 500 nM; for `COc1ccc2c(c1)C=C(c1c(C(=O)N3C[C@@H](C)O[C@@H](C)C3)ncn1C1CCC1)Cn1c-2c(C2CCCCC2)c2ccc(C(=O)NS(=O)(=O)C(C)C)cc21`, 1.7 to 500 nM; for `COc1ccc2c(c1)C=C(c1c(C(=O)N3CCOCC3)ncn1C1CCC1)Cn1c-2c(C2CCCCC2)c2ccc(C(=O)NS(=O)(=O)C(C)C)cc21`, 1.7 to 500 nM.
Still for that read-out and setting: next, `COc1ccc2c(c1)C=C(c1c(C(=O)N3CCN(C4CCCC4)CC3)cnn1C1CCC1)Cn1c-2c(C2CCCCC2)c2ccc(C(=O)NS(=O)(=O)C(C)C)cc21`: 1.7 to 500 nM; `COc1ccc2c(c1)C=C(c1c(C(=O)N3C[C@@H](C)O[C@@H](C)C3)c(C)nn1C1CCC1)Cn1c-2c(C2CCCCC2)c2ccc(C(=O)NS(=O)(=O)C(C)C)cc21`: 1.7 to 500 nM.
The same measure, in the same setting: for `CCN1C[C@@H]2C[C@H]1CN2C(=O)c1cnn(C2CCC2)c1C1=Cc2cc(OC)ccc2-c2c(C3CCCCC3)c3ccc(C(=O)NS(=O)(=O)N(C)C)cc3n2C1` the value was 1.7 to 500 nM.

Staying with this assay, now noted: Hepatitis C virus, one of the methods described, exact value.
As to `COc1ccc2c(c1)C=C(c1c(C(=O)N3CCOCC3)ncn1C1CCC1)Cn1c-2c(C2CCCCC2)c2ccc(C(=O)NS(=O)(=O)C(C)C)cc21`, it took 70 nM to reach a half-maximal effect (EC50).
`COc1ccc2c(c1)C=C(c1c(C(=O)N3C[C@@H](C)O[C@@H](C)C3)c(C)nn1C1CCC1)Cn1c-2c(C2CCCCC2)c2ccc(C(=O)NS(=O)(=O)C(C)C)cc21` came in with an EC50 of 10 nM.

For a further assay, the target named is T1, HCV NS5B (Hepatitis C virus genotype 1b, UniProt Q9WMX2).
T1 construct: The protein was expressed with an 18 amino acid C-terminal truncation to enhance the solubility; made in house; host or cells: E. coli BL21(DE3)
T1 sequence (Q9WMX2 2420-2992): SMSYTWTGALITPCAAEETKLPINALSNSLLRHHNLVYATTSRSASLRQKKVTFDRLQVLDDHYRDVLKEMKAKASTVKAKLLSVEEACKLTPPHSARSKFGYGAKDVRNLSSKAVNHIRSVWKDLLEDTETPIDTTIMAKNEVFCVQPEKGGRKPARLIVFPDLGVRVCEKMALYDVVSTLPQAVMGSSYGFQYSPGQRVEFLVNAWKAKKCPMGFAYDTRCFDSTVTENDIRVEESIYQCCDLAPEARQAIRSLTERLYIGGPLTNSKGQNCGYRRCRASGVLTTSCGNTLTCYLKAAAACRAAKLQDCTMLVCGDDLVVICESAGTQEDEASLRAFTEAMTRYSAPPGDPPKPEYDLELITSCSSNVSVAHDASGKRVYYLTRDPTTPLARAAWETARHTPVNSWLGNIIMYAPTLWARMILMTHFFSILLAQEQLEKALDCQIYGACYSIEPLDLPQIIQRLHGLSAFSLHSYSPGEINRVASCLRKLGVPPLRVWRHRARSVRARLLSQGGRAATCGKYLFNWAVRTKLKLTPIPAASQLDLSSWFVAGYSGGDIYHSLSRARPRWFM
The assay can be described thus: Modified HCV NS5B RdRp enzyme assay (preincubation protocol). It counts as biochemical. The conditions noted are these: class symbol. The procedure:
The cDNA encoding the NS5B protein of HCV, genotype 1b, was cloned into the pET21a expression vector. The protein was expressed with an 18 amino acid C-terminal truncation to enhance the solubility. The E. coli competent cell line BL21(DE3) was used for expression of the protein. Cultures were grown at 37° C. for ˜4 hours until the cultures reached an optical density of 2.0 at 600 nm. The cultures were cooled to 20° C. and induced with 1 mM IPTG. Fresh ampicillin was added to a final concentration of 50 μg/ml and the cells were grown overnight at 20° C.
Cell pellets (3 L) were lysed for purification to yield 15-24 mgs of purified NS5B. The lysis buffer consisted of 20 mM Tris-HCl, pH 7.4, 500 mM NaCl, 0.5% triton X-100, 1 mM DTT, 1 mM EDTA, 20% glycerol, 0.5 mg/ml lysozyme, 10 mM MgCl2, 15 ug/ml deoxyribonuclease I, and Complete TM protease inhibitor tablets (Roche). After addition of the lysis buffer, frozen cell pellets were resuspended using a tissue homogenizer. To reduce the viscosity of the sample, aliquots of the lysate were sonicated on ice using a microtip attached to a Branson sonicator. The sonicated lysate was centrifuged at 100,000×g for 1 hr at 4° C. and filtered through a 0.2 μm filter unit (Corning).
The protein was purified using three sequential chromatography steps: Heparin sepharose CL-6B, polyU sepharose 4B, and […] SP sepharose (Pharmacia). The chromatography buffers were identical to the lysis buffer but contained no lysozyme, deoxyribonuclease I, MgCl2 or protease inhibitor and the NaCl concentration of the buffer was adjusted according to the requirements for charging the protein onto the column. Each column was eluted with a NaCl gradient which varied in length from 5-50 column volumes depending on the column type. After the final chromatography step, the resulting purity of the enzyme is >90% based on SDS-PAGE analysis. The enzyme was aliquoted and stored at −80° C.
HCV RdRp genotype 1b assays were run in a final volume of 60 μl in 96 well plates (Costar 3912). The assay buffer is composed of 20 mM Hepes, pH 7.5, 2.5 mM KCl, 2.5 mM MgCl2, 1 mM DTT, 1.6 U RNAse inhibitor (Promega N2515), 0.1 mg/ml BSA (Promega R3961), and 2% glycerol. All compounds were serially diluted (3-fold) in DMSO and diluted further in water such that the final concentration of DMSO in the assay was 2%. HCV RdRp genotype 1b enzyme was used at a final concentration of 28 nM. A polyA template was used at 6 nM, and a biotinylated oligo-dT12 primer was used at 180 nM final concentration. Template was obtained commercially (Amersham 27-4110). Biotinylated primer was prepared by Sigma Genosys. 3H-UTP was used at 0.6 μCi (0.29 μM total UTP). Reactions were initiated by the addition of enzyme, incubated at 30° C. for 60 min, and stopped by adding 25 μl of 50 mM EDTA containing SPA beads (4 μg/μl, Amersham RPNQ 0007). Plates were read on a Packard TOPCOUNT® NXT after >1 hr incubation at room temperature.
A modified enzyme assay was performed essentially as described for the standard enzyme assay except for the following: The biotinylated oligo dT12 primer was precaptured on streptavidin-coated SPA beads by mixing primer and beads in assay buffer and incubating at room temperature for one hour. Unbound primer was removed after centrifugation. The primer-bound beads were resuspended in 20 mM Hepes buffer, pH 7.5 and used in the assay at final concentrations of 20 nM primer and 0.67 μg/μl beads. Order of addition in the assay: enzyme (14 nM) was added to diluted compound followed by the addition of a mixture of template (0.2 nM), 3H-UTP (0.6 μCi, 0.29 μM), and primer-bound beads, to initiate the reaction; concentrations given are final. Reactions were allowed to proceed for 4 hours at 30° C.
IC50 values for compounds were determined using seven different [I]. IC50 values were calculated from the inhibition using the formula y=A+((B−A)/(1+((C/x)^D))).
Regarding `COc1ccc2c(c1)C=C(c1c(C(=O)N3C[C@@H](C)O[C@@H](C)C3)ncn1C1CC1)Cn1c-2c(C2CCCCC2)c2ccc(C(=O)NS(=O)(=O)C(C)C)cc21`, the IC50 was in the range of 1.7 to 500 nM.
On the same count and under the same terms, for `COc1ccc2c(c1)C=C(c1c(C(=O)N3CCOCC3)ncn1C1CC1)Cn1c-2c(C2CCCCC2)c2ccc(C(=O)NS(=O)(=O)C(C)C)cc21` the value was 1.7 to 500 nM.
For the molecule `COc1ccc2c(c1)C=C(c1c(C(=O)N3C4CCCC3COC4)cnn1C1CCC1)Cn1c-2c(C2CCCCC2)c2ccc(C(=O)NS(=O)(=O)C(C)C)cc21`, the IC50 was 1.7 to 500 nM.
For the molecule `COc1ccc2c(c1)C=C(c1c(C(=O)N3C[C@@H](C)O[C@@H](C)C3)ncn1C1CCC1)Cn1c-2c(C2CCCCC2)c2ccc(C(=O)NS(=O)(=O)C(C)C)cc21`, the IC50 was 1.7 to 500 nM.
On the same count and under the same terms, for `COc1ccc2c(c1)C=C(c1c(C(=O)N3CCOCC3)ncn1C1CCC1)Cn1c-2c(C2CCCCC2)c2ccc(C(=O)NS(=O)(=O)C(C)C)cc21` the value was 1.7 to 500 nM; for `COc1ccc2c(c1)C=C(c1c(C(=O)N3CCN(C4CCCC4)CC3)cnn1C1CCC1)Cn1c-2c(C2CCCCC2)c2ccc(C(=O)NS(=O)(=O)C(C)C)cc21`, 1.7 to 500 nM.
Take `COc1ccc2c(c1)C=C(c1c(C(=O)N3C[C@@H](C)O[C@@H](C)C3)c(C)nn1C1CCC1)Cn1c-2c(C2CCCCC2)c2ccc(C(=O)NS(=O)(=O)C(C)C)cc21`: the IC50 is 1.7 to 500 nM.
The molecule `CCN1C[C@@H]2C[C@H]1CN2C(=O)c1cnn(C2CCC2)c1C1=Cc2cc(OC)ccc2-c2c(C3CCCCC3)c3ccc(C(=O)NS(=O)(=O)N(C)C)cc3n2C1` displayed an IC50 of 1.7 to 500 nM.

The assay is the same for the next values; noted with them: exact value.
`COc1ccc2c(c1)C=C(c1c(C(=O)N3CCOCC3)ncn1C1CCC1)Cn1c-2c(C2CCCCC2)c2ccc(C(=O)NS(=O)(=O)C(C)C)cc21` returned an IC50 of 9.7 nM.
The molecule `COc1ccc2c(c1)C=C(c1c(C(=O)N3C[C@@H](C)O[C@@H](C)C3)c(C)nn1C1CCC1)Cn1c-2c(C2CCCCC2)c2ccc(C(=O)NS(=O)(=O)C(C)C)cc21` gave an IC50 of 6.4 nM.

(Values after patent publication US8133884B2, “Compounds for the treatment of hepatitis C” (priority 2008, dated 2012).)
